Source: patent US20230219904A1 (SYNGENTA CROP PROTECTION AG, priority 2020, published 2023)

Tests used:
Assay type in all cases: in vivo
[1] = system: ECHCG (Echinochloa crus-galli); assay: Comparative test, PRE application (Table B2); details: evaluated after 14 days
Protocol: (§1) TABLE B2—COMPARATIVE TEST
(§2) Seeds of test species were sown in standard soil in pots. After cultivation for one day under controlled conditions in a glasshouse (at 24/16° C., day/night; 14 hours light; 65% humidity), the plants were sprayed with an aqueous spray solution derived from the formulation of the technical active ingredient in 0.6 ml acetone and 45 ml formulation solution containing 10.6% Emulsogen EL (Registry number 61791-12-6), 42.2% N-methyl pyrrolidone, 42.2% dipropylene glycol monomethyl ether (CAS RN 34590-94-8) and 0.2% X-77 (CAS RN 11097-66-8). The test plants were then grown in a glasshouse under controlled conditions in a glasshouse (at 24/16° C., day/night; 14 hours light; 65% humidity) and watered twice daily. After 14 days, the test was evaluated (100=total damage to plant; 0=no damage to plant).
(§3) Test species: ABUTH (Abutilon theophrasti); BRO′I′L (Bromus tectorum); ECHCG (Echinochloa crus-galli); SINAR (Sinapis arvensis).

[2] = system: ABUTH (Abutilon theophrasti); assay: Comparative test, PRE application (Table B2); details: evaluated after 14 days
Protocol: as §1, §2, §3

[3] = system: BROTE (Bromus tectorum); assay: Comparative test, PRE application (Table B2); details: evaluated after 14 days
Protocol: as §1, §2, §3

[4] = system: SINAR (Sinapis arvensis); assay: Comparative test, PRE application (Table B2); details: evaluated after 14 days
Protocol: as §1, §2, §3

[5] = system: Amaranthus retoflexus (AMARE); assay: Pre-emergence herbicidal glasshouse test (Table B1); details: evaluated after 13 days
Method in brief: (§4)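 Glasshouse pot test: compounds sprayed pre-emergence (day 1) or post-emergence (day 8) at 500 g/h unless stated. Evaluation at 13 days as percentage damage, reported on a five-point scale where 5 means 80-100%.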

[6] = system: Abutilon theophrasti (ABUTH); assay: as above; details: evaluated after 13 days
Method in brief: as §4

[7] = system: Ipomoea hederacea (IPOHE); assay: as above; details: evaluated after 13 days
Method in brief: as §4

[8] = system: Setaria faberi (SETFA); assay: as above; details: evaluated after 13 days
Method in brief: as §4

[9] = system: Echinochloa crus-galh (ECHCG); assay: as above; details: evaluated after 13 days
Method in brief: as §4

[10] = system: Amaranthus retoflexus (AMARE); assay: Post-emergence herbicidal glasshouse test (Table B1); details: evaluated after 13 days
Method in brief: as §4

[11] = system: Abutilon theophrasti (ABUTH); assay: as above; details: evaluated after 13 days
Method in brief: as §4

[12] = system: Ipomoea hederacea (IPOHE); assay: as above; details: evaluated after 13 days
Method in brief: as §4

[13] = system: Setaria faberi (SETFA); assay: as above; details: evaluated after 13 days
Method in brief: as §4

[14] = system: Echinochloa crus-galh (ECHCG); assay: as above; details: evaluated after 13 days
Method in brief: as §4

Structure (SMILES) | damage to plant ECHCG (100=total damage to plant; 0=no damage to plant) ([1]; 30 g/ha) | damage to plant ECHCG (100=total damage to plant; 0=no damage to plant) ([1]; 130 g/ha) | damage to plant ECHCG (100=total damage to plant; 0=no damage to plant) ([1]; 250 g/ha) | damage to plant ABUTH (100=total damage to plant; 0=no damage to plant) ([2]; 30 g/ha) | damage to plant ABUTH (100=total damage to plant; 0=no damage to plant) ([2]; 130 g/ha) | damage to plant ABUTH (100=total damage to plant; 0=no damage to plant) ([2]; 250 g/ha) | damage to plant BROTE (100=total damage to plant; 0=no damage to plant) ([3]; 30 g/ha) | damage to plant BROTE (100=total damage to plant; 0=no damage to plant) ([3]; 130 g/ha) | damage to plant BROTE (100=total damage to plant; 0=no damage to plant) ([3]; 250 g/ha) | damage to plant SINAR (100=total damage to plant; 0=no damage to plant) ([4]; 30 g/ha) | damage to plant SINAR (100=total damage to plant; 0=no damage to plant) ([4]; 130 g/ha) | damage to plant SINAR (100=total damage to plant; 0=no damage to plant) ([4]; 250 g/ha) | also measured
Cn1nnnc1NC(=O)c1ccc(OC(F)(F)F)c(NC(=O)c2ccccn2)c1Cl [Compound 1.012, N-[2-chloro-3-[(1-methyltetrazol-5-yl)carbamoyl]-6-(trifluoromethoxy)phenyl]pyridine-2-carboxamide] | 10 | 30 | 30 | 0 | 0 | 10 | 0 | 0 | 70 | 0 | 70 | 80 | PRE Application AMARE, percentage damage on five-point scale ([5]; applied at 125 g/ha): 5 (5=80-100%); PRE Application ABUTH, percentage damage on five-point scale ([6]; applied at 125 g/ha): 5 (5=80-100%); PRE Application IPOHE, percentage damage on five-point scale ([7]; applied at 125 g/ha): 4 (4=60-79%); PRE Application SETFA, percentage damage on five-point scale ([8]; applied at 125 g/ha): 5 (5=80-100%); PRE Application ECHCG, percentage damage on five-point scale ([9]; applied at 125 g/ha): 5 (5=80-100%); POST Application AMARE, percentage damage on five-point scale ([10]; applied at 125 g/ha): 4 (4=60-79%); POST Application ABUTH, percentage damage on five-point scale ([11]; applied at 125 g/ha): 4 (4=60-79%); POST Application IPOHE, percentage damage on five-point scale ([12]; applied at 125 g/ha): 4 (4=60-79%); POST Application SETFA, percentage damage on five-point scale ([13]; applied at 125 g/ha): 4 (4=60-79%); POST Application ECHCG, percentage damage on five-point scale ([14]; applied at 125 g/ha): 3 (3=40-59%)
CC(=O)Nc1c(OC(F)(F)F)ccc(C(=O)Nc2nnnn2C)c1Cl [Compound 1.002] | 20 | 30 | 80 | 0 | 10 | 80 | 0 | 10 | 70 | 10 | 30 | 80 | PRE Application AMARE, percentage damage on five-point scale ([5]; applied at 500 g/h): 5 (5=80-100%); PRE Application ABUTH, percentage damage on five-point scale ([6]; applied at 500 g/h): 5 (5=80-100%); PRE Application IPOHE, percentage damage on five-point scale ([7]; applied): 1 (1=0-19%); PRE Application SETFA, percentage damage on five-point scale ([8]; applied at 500 g/h): 2 (2=20-39%); PRE Application ECHCG, percentage damage on five-point scale ([9]; applied at 500 g/h): 5 (5=80-100%); POST Application AMARE, percentage damage on five-point scale ([10]; applied at 500 g/h): 5 (5=80-100%); POST Application ABUTH, percentage damage on five-point scale ([11]; applied at 500 g/h): 5 (5=80-100%); POST Application IPOHE, percentage damage on five-point scale ([12]; applied at 500 g/h): 5 (5=80-100%); POST Application SETFA, percentage damage on five-point scale ([13]; applied at 500 g/h): 5 (5=80-100%); POST Application ECHCG, percentage damage on five-point scale ([14]; applied at 500 g/h): 5 (5=80-100%)
